The values that follow come from PubChem BioAssay (NCI).

The structures appear in SMILES notation.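 Dose response: 5 concentrations. Exposure: 48 h. Format: 96-well plates. Endpoint: linear interpolation; highest concentration if not reached. GI50: concentration for 50% inhibition of growth. TGI: total growth inhibition.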

The test system of one experiment is OVCAR-8 ovarian. The experiment in a line: inhibition of tumour cell growth, NCI panel, 48 h.
Consider `Cc1nn2c(/C=C3\C(=O)Nc4ccc(Cl)cc43)c(C)nc2s1`, for which the GI50 was 84.3 µM and the TGI was more than 100 µM.

In the case of `COc1ccc(C(=O)OC2C(OC3C(O)COC(O[C@H]4C[C@H]5[C@@H]6CC=C7C[C@@H](O)CC[C@]7(C)[C@H]6CC[C@]5(C)[C@H]4[C@H](C)C(=O)CCC(C)C)C3OC(N)=O)OCC(O)C2O)cc1` (stereo not given in full), the GI50 was 3.14 µM and the TGI came to 9.27 µM.

With `c1ccc2[nH]c(-c3ccc(-c4nccc5c4[nH]c4ccccc45)cc3)nc2c1`, the GI50 is 3.3 µM and the TGI was found to be 13.5 µM.

In the case of `COC(=O)c1nc(-c2ccccc2)oc1S(=O)(=O)Cc1ccccc1`, the GI50 is 12.1 µM and the TGI was determined as 28.2 µM.

`CN(O)c1nc(N(C)O)nc(N2CCOCC2)n1`: the GI50 was 3.85 µM and the TGI is more than 100 µM.

A further experiment relates to SF-539 CNS. The experiment in a line: inhibition of tumour cell growth, NCI panel, 48 h.
`Cc1nn2c(/C=C3\C(=O)Nc4ccc(Cl)cc43)c(C)nc2s1`: the GI50 is 45 µM and the TGI was more than 100 µM.

Regarding `COc1ccc(C(=O)OC2C(OC3C(O)COC(O[C@H]4C[C@H]5[C@@H]6CC=C7C[C@@H](O)CC[C@]7(C)[C@H]6CC[C@]5(C)[C@H]4[C@H](C)C(=O)CCC(C)C)C3OC(N)=O)OCC(O)C2O)cc1` (stereo not given in full), the GI50 was less than 0.003 µM and the TGI was 0.0685 µM.

With `c1ccc2[nH]c(-c3ccc(-c4nccc5c4[nH]c4ccccc45)cc3)nc2c1`, the GI50 is 1.89 µM and the TGI is 3.68 µM.

Consider `COC(=O)c1nc(-c2ccccc2)oc1S(=O)(=O)Cc1ccccc1`, for which the GI50 was 11.2 µM and the TGI was determined as 23.7 µM.

`CN(O)c1nc(N(C)O)nc(N2CCOCC2)n1`: the GI50 was 4.1 µM and the TGI was more than 100 µM.

The subject of another experiment is UO-31 renal. The experiment in a line: inhibition of tumour cell growth, NCI panel, 48 h.
Regarding `Cc1nn2c(/C=C3\C(=O)Nc4ccc(Cl)cc43)c(C)nc2s1`, the GI50 was 34.6 µM and the TGI is more than 100 µM.

In the case of `COc1ccc(C(=O)OC2C(OC3C(O)COC(O[C@H]4C[C@H]5[C@@H]6CC=C7C[C@@H](O)CC[C@]7(C)[C@H]6CC[C@]5(C)[C@H]4[C@H](C)C(=O)CCC(C)C)C3OC(N)=O)OCC(O)C2O)cc1` (stereo not given in full), the GI50 was 0.0944 µM and the TGI was 0.425 µM.

Take `c1ccc2[nH]c(-c3ccc(-c4nccc5c4[nH]c4ccccc45)cc3)nc2c1`: the GI50 was 1.69 µM and the TGI is 3.27 µM.

As to `COC(=O)c1nc(-c2ccccc2)oc1S(=O)(=O)Cc1ccccc1`, the GI50 is 1.48 µM and the TGI came out at 2.84 µM.

`CN(O)c1nc(N(C)O)nc(N2CCOCC2)n1`: the GI50 was 2.41 µM and the TGI is more than 100 µM.

For the next experiment, the system named is CAKI-1 renal. The experiment in a line: inhibition of tumour cell growth, NCI panel, 48 h.
`Cc1nn2c(/C=C3\C(=O)Nc4ccc(Cl)cc43)c(C)nc2s1`: the GI50 was 26 µM and the TGI is more than 100 µM.

With `COc1ccc(C(=O)OC2C(OC3C(O)COC(O[C@H]4C[C@H]5[C@@H]6CC=C7C[C@@H](O)CC[C@]7(C)[C@H]6CC[C@]5(C)[C@H]4[C@H](C)C(=O)CCC(C)C)C3OC(N)=O)OCC(O)C2O)cc1` (stereo not given in full), the GI50 was 0.102 µM and the TGI worked out at 0.975 µM.

`c1ccc2[nH]c(-c3ccc(-c4nccc5c4[nH]c4ccccc45)cc3)nc2c1`: the GI50 is 2.41 µM and the TGI was found to be 7.11 µM.

Consider `COC(=O)c1nc(-c2ccccc2)oc1S(=O)(=O)Cc1ccccc1`, for which the GI50 is 1.84 µM and the TGI stood at 3.42 µM.

Consider `CN(O)c1nc(N(C)O)nc(N2CCOCC2)n1`, for which the GI50 was 1.08 µM and the TGI was more than 100 µM.

In another experiment the test system is HCC-2998 colon. The experiment in a line: inhibition of tumour cell growth, NCI panel, 48 h.
`Cc1nn2c(/C=C3\C(=O)Nc4ccc(Cl)cc43)c(C)nc2s1`: the GI50 is 26.2 µM and the TGI was more than 100 µM.

For the compound `COc1ccc(C(=O)OC2C(OC3C(O)COC(O[C@H]4C[C@H]5[C@@H]6CC=C7C[C@@H](O)CC[C@]7(C)[C@H]6CC[C@]5(C)[C@H]4[C@H](C)C(=O)CCC(C)C)C3OC(N)=O)OCC(O)C2O)cc1` (stereo not given in full), the GI50 is 1.21 µM and the TGI worked out at 6.16 µM.

For the compound `c1ccc2[nH]c(-c3ccc(-c4nccc5c4[nH]c4ccccc45)cc3)nc2c1`, the GI50 was 3.96 µM and the TGI is 15.9 µM.

For the compound `COC(=O)c1nc(-c2ccccc2)oc1S(=O)(=O)Cc1ccccc1`, the GI50 was 19 µM and the TGI worked out at 36.3 µM.

Take `CN(O)c1nc(N(C)O)nc(N2CCOCC2)n1`: the GI50 was 8.75 µM and the TGI is more than 100 µM.

In another experiment the test system is T-47D breast. The experiment in a line: inhibition of tumour cell growth, NCI panel, 48 h.
For the compound `Cc1nn2c(/C=C3\C(=O)Nc4ccc(Cl)cc43)c(C)nc2s1`, the GI50 is 42.8 µM and the TGI is more than 100 µM.

For the compound `COc1ccc(C(=O)OC2C(OC3C(O)COC(O[C@H]4C[C@H]5[C@@H]6CC=C7C[C@@H](O)CC[C@]7(C)[C@H]6CC[C@]5(C)[C@H]4[C@H](C)C(=O)CCC(C)C)C3OC(N)=O)OCC(O)C2O)cc1` (stereo not given in full), the GI50 is 0.0501 µM and the TGI came to 2.02 µM.

Regarding `c1ccc2[nH]c(-c3ccc(-c4nccc5c4[nH]c4ccccc45)cc3)nc2c1`, the GI50 is 2.02 µM and the TGI came out at 6.19 µM.

Consider `COC(=O)c1nc(-c2ccccc2)oc1S(=O)(=O)Cc1ccccc1`, for which the GI50 is 2.17 µM and the TGI came to 5.95 µM.

For `CN(O)c1nc(N(C)O)nc(N2CCOCC2)n1`, the GI50 was 8.07 µM and the TGI was more than 100 µM.

The next experiment has as its system SK-OV-3 ovarian. The experiment in a line: inhibition of tumour cell growth, NCI panel, 48 h.
Regarding `Cc1nn2c(/C=C3\C(=O)Nc4ccc(Cl)cc43)c(C)nc2s1`, the GI50 was 49.8 µM and the TGI was more than 100 µM.

Turning to `COc1ccc(C(=O)OC2C(OC3C(O)COC(O[C@H]4C[C@H]5[C@@H]6CC=C7C[C@@H](O)CC[C@]7(C)[C@H]6CC[C@]5(C)[C@H]4[C@H](C)C(=O)CCC(C)C)C3OC(N)=O)OCC(O)C2O)cc1` (stereo not given in full), the GI50 is 0.0423 µM and the TGI is 1.34 µM.

With `c1ccc2[nH]c(-c3ccc(-c4nccc5c4[nH]c4ccccc45)cc3)nc2c1`, the GI50 was 4.37 µM and the TGI came to 15.9 µM.

`COC(=O)c1nc(-c2ccccc2)oc1S(=O)(=O)Cc1ccccc1`: the GI50 was 70.2 µM and the TGI was more than 100 µM.

On to `CN(O)c1nc(N(C)O)nc(N2CCOCC2)n1`, for which the GI50 was 12.6 µM and the TGI is more than 100 µM.

In a further experiment the test system is IGROV1 ovarian. The experiment in a line: inhibition of tumour cell growth, NCI panel, 48 h.
On to `Cc1nn2c(/C=C3\C(=O)Nc4ccc(Cl)cc43)c(C)nc2s1`, for which the GI50 was 23.7 µM and the TGI is more than 100 µM.

On to `COc1ccc(C(=O)OC2C(OC3C(O)COC(O[C@H]4C[C@H]5[C@@H]6CC=C7C[C@@H](O)CC[C@]7(C)[C@H]6CC[C@]5(C)[C@H]4[C@H](C)C(=O)CCC(C)C)C3OC(N)=O)OCC(O)C2O)cc1` (stereo not given in full), for which the GI50 is 0.0282 µM and the TGI came to 3.69 µM.

`c1ccc2[nH]c(-c3ccc(-c4nccc5c4[nH]c4ccccc45)cc3)nc2c1`: the GI50 is 4.73 µM and the TGI was 22.4 µM.

Turning to `COC(=O)c1nc(-c2ccccc2)oc1S(=O)(=O)Cc1ccccc1`, the GI50 is 2.75 µM and the TGI stood at 7.21 µM.

On to `CN(O)c1nc(N(C)O)nc(N2CCOCC2)n1`, for which the GI50 is 2.27 µM and the TGI is more than 100 µM.

The test system of the next experiment is MDA-MB-231 breast. The experiment in a line: inhibition of tumour cell growth, NCI panel, 48 h.
Consider `Cc1nn2c(/C=C3\C(=O)Nc4ccc(Cl)cc43)c(C)nc2s1`, for which the GI50 is more than 100 µM and the TGI was more than 100 µM.

Turning to `COc1ccc(C(=O)OC2C(OC3C(O)COC(O[C@H]4C[C@H]5[C@@H]6CC=C7C[C@@H](O)CC[C@]7(C)[C@H]6CC[C@]5(C)[C@H]4[C@H](C)C(=O)CCC(C)C)C3OC(N)=O)OCC(O)C2O)cc1` (stereo not given in full), the GI50 was 0.355 µM and the TGI was found to be 4.58 µM.

With `c1ccc2[nH]c(-c3ccc(-c4nccc5c4[nH]c4ccccc45)cc3)nc2c1`, the GI50 was 2.39 µM and the TGI came out at 5.83 µM.

Consider `COC(=O)c1nc(-c2ccccc2)oc1S(=O)(=O)Cc1ccccc1`, for which the GI50 is 2.18 µM and the TGI is 5.24 µM.

On to `CN(O)c1nc(N(C)O)nc(N2CCOCC2)n1`, for which the GI50 was 7 µM and the TGI is more than 100 µM.

A further experiment deals with HS 578T breast. The experiment in a line: inhibition of tumour cell growth, NCI panel, 48 h.
For the compound `Cc1nn2c(/C=C3\C(=O)Nc4ccc(Cl)cc43)c(C)nc2s1`, the GI50 was 61.8 µM and the TGI is more than 100 µM.

`COc1ccc(C(=O)OC2C(OC3C(O)COC(O[C@H]4C[C@H]5[C@@H]6CC=C7C[C@@H](O)CC[C@]7(C)[C@H]6CC[C@]5(C)[C@H]4[C@H](C)C(=O)CCC(C)C)C3OC(N)=O)OCC(O)C2O)cc1` (stereo not given in full): the GI50 was less than 0.003 µM and the TGI was 0.37 µM.

With `c1ccc2[nH]c(-c3ccc(-c4nccc5c4[nH]c4ccccc45)cc3)nc2c1`, the GI50 is 2.23 µM and the TGI turned out to be 5.93 µM.

For `COC(=O)c1nc(-c2ccccc2)oc1S(=O)(=O)Cc1ccccc1`, the GI50 was 19.2 µM and the TGI was determined as 60.1 µM.

`CN(O)c1nc(N(C)O)nc(N2CCOCC2)n1`: the GI50 is 64.2 µM and the TGI is more than 100 µM.
